In US20190142738A1, “TRANSDERMAL FORMULATIONS FOR DELIVERY OF CELECOXIB AND ITS USE IN THE TREATMENT OF CELECOXIB-RESPONSIVE DISEASES AND CONDITIONS” (DELIVRA INC., priority 2016, published 2019):
Where two headings read alike, the source gives them in different places.

Key:
Type in all cases: in vivo
[1] = Oral and transdermal celecoxib concentrations in canine sera and synovial fluid; conditions: dogs; for concentration at 7 days / concentration at 60 min: dog
Excerpt: A Latin Square design was used employing six aged dogs with radiographic evidence of bilateral shoulder osteoarthritis. The treatment cycle consisted of six days twice daily followed by a period of seven days devoid of treatment. Blood and synovial fluid samples (from both stifles and shoulders) were collected on the last (sixth) day of drug application and on the last (seventh) day of the washout period.
Test article: 3% celecoxib in exemplary transdermal base formulation 4; ˜0.5 g gel per shoulder (2) and stifle joint (2) twice daily (i.e. 60 mg celecoxib total twice daily).
Control article: Exemplary transdermal base formulation 5; ˜1 g gel per shoulder joint twice daily.
Positive control: 30 mg celecoxib in capsule PO twice daily.
Serum and Synovial Fluid Collection:
Whole blood and synovial fluid samples were collected from the dogs 60 mins post treatment on the […], and additional samples were collected after a 7 day washout. Baseline synovial fluid was collected from untreated canine subjects. Synovial fluid was collected under sedation (medetomidine, 0.01 mg/kg) and butorphenol (0.1 mg/kg, IV). The fluid was collected by arthrocentesis into the joint following surgical preparation of the area. Synovial fluid was collected from the stifle or shoulder joints.
Analytical Method Development and Quantification:
The method for quantification of celecoxib in serum, plasma and synovial fluid was completed by the National Research Council of Canada (NRC). The results were categorized and summarized for average and deviations for each treatment group and time period.
The objective of this study was to determine if the transdermal formulations of the application were capable of delivering celecoxib either into the systemic circulation and joint synovial fluid and compare transdermal versus oral routes of administration. A canine model was used over two time periods. The first time period consisting of a twice daily drug administration regimen for six days to assess concentrations predictive of chronic use. The second time period followed immediately after, wherein all animals were withdrawn of drug administration and tested after seven days to determine if celecoxib was completely metabolized.

[2] = tested on: sodium urate induced synovitis model in Beagle dogs; assay: Pain questionnaire assessment (cumulative pain score), sodium urate induced synovitis model
Procedure: Study Design: The study was a randomized, blinded, preclinical study using a controlled, parallel, matched-group design. Thirty-two subjects meeting the inclusion criteria were enrolled in the trial and allocated to 4 balanced groups; therefore one group received 2 treatments separated by a minimum of 14 days. Following induction of synovitis by sodium urate injections, effectiveness of transdermal formulations were evaluated using a pain questionnaire assessment and joint measurements at various time points. [table] On days 0, 2, 7 and 22, subjects who were schedules for synovitis induction were treated according to their assigned treatment condition. Test article administration occurred 30 minutes following synovitis induction, i.e. sodium urate injection. Transdermal treatment doses were measured in milligrams using an analytical scale and were then applied directly to the induce stifle. […] If IV administration of the propofol was not possible due to inaccessibility of the vein, the subjects were masked down using the isoflurane-oxygen mixture and the event was recorded on the anesthesia record. […] Specifically, the ability for each dog to walk, trot, gallop, rear, jump over a low obstacle, climb and descend stairs, jump down from a perch and general activity is evaluated in parallel to subjective evaluation of pain observed during each behavior. […]

[3] = tested on: sodium urate induced synovitis model in Beagle dogs; assay: Caliper measurement of patella/patellar tendon (knee cap) width, percent baseline measure of inflammation, sodium urate induced synovitis model
Procedure: Study Design: The study was a randomized, blinded, preclinical study using a controlled, parallel, matched-group design. Thirty-two subjects meeting the inclusion criteria were enrolled in the trial and allocated to 4 balanced groups; therefore one group received 2 treatments separated by a minimum of 14 days. Following induction of synovitis by sodium urate injections, effectiveness of transdermal formulations were evaluated using a pain questionnaire assessment and joint measurements at various time points. [table] On days 0, 2, 7 and 22, subjects who were schedules for synovitis induction were treated according to their assigned treatment condition. Test article administration occurred 30 minutes following synovitis induction, i.e. sodium urate injection. Transdermal treatment doses were measured in milligrams using an analytical scale and were then applied directly to the induce stifle. Transdermal treatments were rubbed into the dog's skin for a minimum of 1 minute. […] If IV administration of the propofol was not possible due to inaccessibility of the vein, the subjects were masked down using the isoflurane-oxygen mixture and the event was recorded on the anesthesia record. […] Each treatment group had the same number of dogs induced in the left […]) Caliper measurements: Within thirty minutes of synovitis induction and 4.5, 8.5, 24.5 and 30.5 hours following induction (±15 minutes), the width of the patella and the patellar tendon were measured in millimeters using […] 150 mm plastic gauge calipers which measured in increments of 1 mm. […] The cumulative pain scored and stifle measurements were analyzed using a repeated-measures analysis of variance (ANOVA) with the treatment group (7 factors( ) as between-subject measure and time-point (5 factors for pain and 4 factors for the inflammation measure) as a within-subject measure. Post-hoc Fisher's test was used to examine differences as appropriate. The Statistica 11 (Statsoft, Tulsa, Okla.) statistical software package was used with significance set to […].

[4] = Oral, 30 mg capsule PO twice daily (60 mg/day), Chronic administration (6 days)
[5] = Transdermal (formulation 4), Washout (7 days)
[6] = Transdermal, 3% celecoxib in formulation 4, 120 mg/day, Chronic administration (6 days)

Cc1ccc(-c2cc(C(F)(F)F)nn2-c2ccc(S(N)(=O)=O)cc2)cc1 [celecoxib]
concentration at 7 days ([1]; serum, 30 mg, Oral, Washout (7 days), read-out: Serum drug concentration of celecoxib): 0 ng/mL | concentration at 7 days ([1]; serum, topical, 60 mg, Transdermal (formulation 4), Washout (7 days), read-out: Serum drug concentration of celecoxib): 4 ng/mL | concentration at 60 min ([1]; serum, topical, 60 mg, Transdermal, 3% celecoxib in formulation 4, 120 mg/day, Chronic administration (6 days), read-out: Serum drug concentration of celecoxib): 221 ng/mL | concentration at 60 min ([1]; serum, Oral, 30 mg capsule PO twice daily (60 mg/day), Chronic administration (6 days), read-out: Serum drug concentration of celecoxib): 312 ng/mL | concentration at 7 days ([1]; synovial fluid, 30 mg, Oral, Washout (7 days), read-out: Synovial fluid drug concentration of celecoxib): 1 ng/mL | concentration at 7 days ([1]; synovial fluid, topical, 60 mg, Transdermal (formulation 4), Washout (7 days), read-out: Synovial fluid drug concentration of celecoxib): 17 ng/mL | concentration at 60 min ([1]; synovial fluid, topical, 60 mg, Transdermal, 3% celecoxib in formulation 4, 120 mg/day, Chronic administration (6 days), read-out: Synovial fluid drug concentration of celecoxib): 203 ng/mL | concentration at 60 min ([1]; synovial fluid, Oral, 30 mg capsule PO twice daily (60 mg/day), Chronic administration (6 days), read-out: Synovial fluid drug concentration of celecoxib): 76 ng/mL | Serum drug concentration of celecoxib [1, 4]: 312 (±214) ng/mL | Synovial fluid drug concentration of celecoxib [1, 4]: 76 (±57) ng/mL | Synovial fluid drug concentration of celecoxib ([1]; Oral, Washout (7 days)): 1 (±1) ng/mL | Serum drug concentration of celecoxib [1, 5]: 4 (±6) ng/mL | Synovial fluid drug concentration of celecoxib [1, 5]: 17 (±35) ng/mL | Serum drug concentration of celecoxib [1, 6]: 221 (±227) ng/mL | Synovial fluid drug concentration of celecoxib [1, 6]: 203 (±165) ng/mL | amount of drug the transdermal route requires to achieve the same circulating concentration as oral ([1]; chronic treatment, transdermal versus oral): twofold | reduction of circulating drug concentrations by one week washout ([1]; serum, oral or transdermal): > 95% | reduction of drug concentration by one week washout ([1]; synovial fluid, oral or transdermal): > 90% | cumulative pain score in comparison to no treatment ([2]; 4 hours after treatment): significantly reduced | cumulative pain score in comparison to no treatment ([2]; 8 hours after treatment): significantly reduced | inflammation compared to Voltaren ([3]; 8 hours): significantly reduced inflammation | percent baseline measure of inflammation (knee cap measurement) in comparison to no treatment ([3]; 24 hours): significantly reduced | effects on inflammation compared to negative control ([3]; summary statement, no time point stated): no effects
